In one experiment the test system is HIV-2. The experiment in a line: Virus titer (TCID) of HIV-2 infected T-cell cultures grown with test compound. The format is cell-based. Conditions: control 10^6; for HIV-2 (TCID): Table 2, 0.10 mg/ml, 10^4 T-45 or MOLT-4 cells (identical results), 10^4 TCID inoculum, after day 10; for VIRUS TITER HIV-2: Table 3, Example 2, 0.1 mg/ml, T-45 and MOLT-4 cells, 10^4 TCID on 10^4 cells. How it is done:
(§1) Cell free suspensions of the HIV were prepared from infected cultures. The concentration of infectious particles was estimated on end-point titration assay using serial ten-fold dilutions. The approximate number of infectious particles in each preparation was determined by the highest dilution which contains infectious HIV as determined by synctial formation, cytopathicity [Leonard et al., Proc. Natl. Acad. Sci. USA 85, 3570-3574 (1988); Barre-Sinoussi et al., Science 220, 868-870 (1983)] and HIV antigen [Karpas et al., Lancet 1, 695-697 (1985)] synthesis after 10 days of culture with 10^4 T-cells. This represents the concentration of infectious particles, herein defined as the tissue culture infectious dose (TCID).
The assay was run in 96 well plastic microtiter plates in which 0.2 ml of culture medium containing 10^4 T-cells are seeded into each well. RPMI-1640 supplemented with 10% fetal calf serum was used as the culture medium. In each assay, 6 wells are used. Three (1-3) are infected with 10^4 TCID/well of HIV-1 or HIV-2 and to the other three (4-6) culture medium alone is added. Medium is changed at the same intervals for each test compound. The detailed assay procedure is illustrated in Figures 1 and 2.
(§2) The efficacy of the test compounds used in this example was assessed as follows: 0.2 ml of culture medium containing 10^4 T-45 cells were transferred into each well of a 96-well flat-bottomed tissue-culture plastic plate and the cells were allowed to settle at 37°C (see Figure 1). After 4 hours the media were aspirated and replaced with media which contained the test compound. Following overnight incubation the media was aspirated and 10^4 TCID of virus (HIV-1 or HIV-2) was added to each well. Incubation was continued at 37°C in 5% CO2 for 1 hour. Thereafter, growth media containing the various compounds were added and incubation at 37°C was continued. On the fourth day the cell suspensions from each well were split and seeded into two new wells and 0.2 ml of fresh media with compounds was added. This was repeated on the seventh day. Cells were examined by microscopy during days 1 to 10 for the presence of syncytia, growth rate and the appearance of the cytopathic effect (CPE) (giant cells, pycnotic nuclei, loss of refractility). CPE (100%) was defined as no round, refractile, uniform cells remaining; only giant, ballooned pyknotic cells were present. The viability of HIV infected cultures was determined by a rough count/estimate of cells which underwent CPE in relation to round refractile uniform (normal) cells in a given culture. Cells in wells which were incubated with compounds which appeared to inhibit or reduce HIV replication and in which there was marked cell proliferation were either transferred to larger wells (of a 24-well plate) or divided in order to maintain an approximate constant cell density to promote continuous cell division.
That is, HIV-1 was first passaged in T-45 cells; likewise, HIV-1 was first passaged in MOLT-4 cells. The same passaging was done with HIV-2. The test compounds were used at a concentration of 0.1 mg/ml. 10^4 TCID of HIV-1 and separately of HIV-2 were used to infect 10^4 cells. Upon completion of the test, the virus titers were as follows: TABLE 3

The target of the next experiment is T1, glucosidase I (Bos taurus, UniProt A0A3Q1M9D9).
T1 sequence (A0A3Q1M9D9 1-839): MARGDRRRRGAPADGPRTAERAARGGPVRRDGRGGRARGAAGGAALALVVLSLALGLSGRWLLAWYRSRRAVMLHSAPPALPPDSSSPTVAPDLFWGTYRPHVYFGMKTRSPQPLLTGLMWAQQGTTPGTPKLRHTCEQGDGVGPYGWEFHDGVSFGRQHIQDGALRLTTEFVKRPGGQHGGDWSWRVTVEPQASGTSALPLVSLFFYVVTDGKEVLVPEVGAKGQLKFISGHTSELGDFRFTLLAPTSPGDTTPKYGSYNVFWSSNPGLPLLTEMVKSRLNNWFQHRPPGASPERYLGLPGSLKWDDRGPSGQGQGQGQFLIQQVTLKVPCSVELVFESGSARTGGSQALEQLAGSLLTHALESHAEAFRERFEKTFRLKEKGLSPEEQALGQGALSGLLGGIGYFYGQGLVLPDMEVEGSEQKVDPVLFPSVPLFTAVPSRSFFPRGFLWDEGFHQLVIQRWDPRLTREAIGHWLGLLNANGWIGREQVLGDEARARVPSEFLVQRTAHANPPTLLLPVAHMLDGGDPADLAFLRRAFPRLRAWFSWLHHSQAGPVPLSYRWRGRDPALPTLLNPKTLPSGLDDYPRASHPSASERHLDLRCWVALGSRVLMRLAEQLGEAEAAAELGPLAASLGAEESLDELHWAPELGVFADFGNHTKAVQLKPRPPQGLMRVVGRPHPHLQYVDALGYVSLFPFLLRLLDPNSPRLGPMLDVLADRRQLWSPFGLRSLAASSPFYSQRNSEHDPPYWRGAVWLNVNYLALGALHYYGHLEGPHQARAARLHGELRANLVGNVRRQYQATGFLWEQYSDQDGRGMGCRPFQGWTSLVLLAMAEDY
Conditions: reported by Schweden et al., Arch. Biochem. Biophys. 248(1), 335-340 (1986); cited from earlier work.

For another experiment, the system named is HIV. Nature of the experiment: TCID titre of culture supernatants of T-45 cells infected with HIV, Fig. 4. The format is cell-based. The settings on record: for reduction of TCID titre of culture supernatants: T-45 cells infected with HIV, after 10 days in culture, result in words; for reduction of the virus titer / yield of infectious HIV: at non-cytotoxic concentrations. How it is done: FIG. 4 is a graphical representation in which the viral titer (determined as TCID) is plotted against the concentration in mg/ml of various of the test compounds (drugs) of FIG. 3 in panels (a) and (b).
as §1, §2
Quantitative data on the effect of the various compounds on the non-infected cells (cytotoxicity) was obtained by comparison of their growth rate to control cells not exposed to drugs (Table 1). Fig. 4 and Table 2 show the relation between the TCID titre of culture supernatants of T-45 cells infected with HIV after 10 days in culture and the concentration of drug. […] The inability of any of these drugs alone to totally reduce the TCID may be due to heterogeneity of virus production or spread. […] In addition, the MOLT-4 cell line was also used.

Setting [1] is: replicate tests (Tables 2 and 3), two virus strains, two cell lines.

For `CCCCN1C[C@H](O)[C@@H](O)[C@H](O)[C@H]1CO` [BuDNJ, N-n-butyl-deoxynojirimycin], in the experiment with HIV-2, the “HIV-2 (TCID)” value is given as under 10 TCID and the “VIRUS TITER HIV-2” value was 10. In addition, the “glucosidase I inhibitory activity” value at glucosidase I was “virtually identical”. In the experiment on HIV, the “reduction of TCID titre of culture supernatants” value is “negligible virus TCID titres” and the “reduction of the virus titer / yield of infectious HIV” value is given as “over five logs”. In addition, in the experiment on HIV (setting [1]), the “effectiveness as an inhibitor of HIV compared with N-ethyl deoxynojirimycin” value was “three log orders more effective” and the “effectiveness as an inhibitor of HIV compared with N-methyl-deoxynojirimycin” value is “two log orders more effective”.
As for `CN1C[C@H](O)[C@@H](O)[C@H](O)[C@H]1CO` [MeDNJ, N-methyl-deoxynojirimycin], in the experiment with HIV-2, the “HIV-2 (TCID)” value was 10^2 TCID and the “VIRUS TITER HIV-2” value was 10^2. Further, the “glucosidase I inhibitory activity” value on glucosidase I is on record as “virtually identical”. Moreover, in the experiment with HIV, the “reduction of TCID titre of culture supernatants” value is “reduced the TCID only partially” and the “reduction of the virus titer / yield of infectious HIV” value is reported as “two to four log-order of reduction”.
